Measurements published in US12660819B2, “Herbicidal derivatives” (SYNGENTA CROP PROTECTION AG, priority 2020, dated 2026).

Legend:
Assay type in all cases: in vivo
[1] = test system: Ipomoea hederacea (IPOHE); assay: Pre-emergence Test (glasshouse, percentage damage to the plant); details: 1000 g/ha unless otherwise stated, Ipomoea hederacea
Setaria faberi (SETFA) [2] = assay: as above; details: 1000 g/ha unless otherwise stated, Setaria faberi
[3] = test system: Amaranthus retoflexus (AMARE); assay: as above; details: 1000 g/ha unless otherwise stated, Amaranthus retoflexus
[4] = test system: Amaranthus palmeri (AMAPA); assay: as above; details: 1000 g/ha unless otherwise stated, Amaranthus palmeri
[5] = test system: Echinochloa crus-galli (ECHCG); assay: as above; details: 1000 g/ha unless otherwise stated, Echinochloa crus-galli
Setaria faberi (SETFA) [6] = assay: Post-emergence Test (glasshouse, percentage damage to the plant); details: post-emergence; 1000 g/ha unless otherwise stated; evaluated after 13 days
Method in brief: (§1)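 Seeds sown in pots in glasshouse (24/16 °C day/night, 14 h light, 65% humidity), then sprayed with compound at 1000 g/ha unless stated, from acetone/water 50:50 with 0.5% Tween 20. Damage assessed 13 days later on five-point scale (1=0–20% to 5=81–100%).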

[7] = test system: Amaranthus palmeri (AMAPA); assay: as above; details: post-emergence; 1000 g/ha unless otherwise stated; evaluated after 13 days
Method in brief: (§2)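 Spray treatment of sown glasshouse pots at 1000 g/ha (default rate), vehicle acetone/water 50:50 plus 0.5% Tween 20. Read-out: percentage damage after 13 days, converted to a score where 5 denotes 81-100% and 1 denotes 0-20%.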

[8] = test system: Amaranthus retoflexus (AMARE); assay: as above; details: post-emergence; 1000 g/ha unless otherwise stated; evaluated after 13 days
Method in brief: as §2

[9] = test system: Ipomoea hederacea (IPOHE); assay: as above; details: post-emergence; 1000 g/ha unless otherwise stated; evaluated after 13 days
Method in brief: as §1

Zea mays (ZEAMX) [10] = assay: as above; details: post-emergence; 1000 g/ha unless otherwise stated; evaluated after 13 days
Method in brief: as §1

Zea mays (ZEAMX) [11] = assay: Pre-emergence Test (glasshouse, percentage damage to the plant); details: 1000 g/ha unless otherwise stated, Zea mays

SMILES	percentage damage to the plant, IPOHE (five-point scale) [1]	percentage damage to the plant, SETFA (five-point scale) (Setaria faberi (SETFA) [2])	percentage damage to the plant, AMARE (five-point scale) [3]	percentage damage to the plant, AMAPA (five-point scale) [4]	percentage damage to the plant, ECHCG (five-point scale) [5]	SETFA, percentage damage caused to the plant (five-point scale) (Setaria faberi (SETFA) [6])	AMAPA, percentage damage caused to the plant (five-point scale) [7]	AMARE, percentage damage caused to the plant (five-point scale) [8]	IPOHE, percentage damage caused to the plant (five-point scale) [9]	ZEAMX, percentage damage caused to the plant (five-point scale) (Zea mays (ZEAMX) [10])	percentage damage to the plant, ZEAMX (five-point scale) (Zea mays (ZEAMX) [11])
CCn1c(C)c(-c2cc(C)ccc2C)c(=O)c(C(=O)O)c1-c1ccc(Cl)c(Cl)c1 [Compound 225, 2-(3,4-dichlorophenyl)-5-(2,5-dimethylphenyl)-1-ethyl-6-methyl-4-oxo-pyridine-3-carboxylic acid]	0	0	0	0	1 (1=0-20%)	1 (1=0-20%)	5 (5=81-100%)	4 (4=61-80%)	1 (1=0-20%)	1 (1=0-20%)	0
CCn1c(C)c(-c2cccc(C)c2F)c(=O)c(C(=O)O)c1-c1ccc(Cl)c(Cl)c1 [Compound 228, 2-(3,4-dichlorophenyl)-1-ethyl-5-(2-fluoro-3-methyl-phenyl)-6-methyl-4-oxo-pyridine-3-carboxylic acid]	3 (3=41-60%)	5 (5=81-100%)	2 (2=21-40%)	4 (4=61-80%)	5 (5=81-100%)	3 (3=41-60%)	5 (5=81-100%)	4 (4=61-80%)	3 (3=41-60%)	2 (2=21-40%)	2 (2=21-40%)
CCn1c(C)c(-c2cc(Cl)ccc2F)c(=O)c(C(=O)O)c1-c1ccc(Cl)c(Cl)c1 [Compound 229, 5-(5-chloro-2-fluoro-phenyl)-2-(3,4-dichlorophenyl)-1-ethyl-6-methyl-4-oxo-pyridine-3-carboxylic acid]	1 (1=0-20%)	1 (1=0-20%)	4 (4=61-80%)	4 (4=61-80%)	0	1 (1=0-20%)	5 (5=81-100%)	5 (5=81-100%)	3 (3=41-60%)	1 (1=0-20%)	0
CCn1c(C)c(-c2cc(C)ccc2F)c(=O)c(C(=O)O)c1-c1ccc(Cl)c(Cl)c1 [Compound 231, 2-(3,4-dichlorophenyl)-1-ethyl-5-(2-fluoro-5-methyl-phenyl)-6-methyl-4-oxo-pyridine-3-carboxylic acid]	0	4 (4=61-80%)	3 (3=41-60%)	4 (4=61-80%)	2 (2=21-40%)	3 (3=41-60%)	5 (5=81-100%)	5 (5=81-100%)	3 (3=41-60%)	1 (1=0-20%)	0
CCn1c(C)c(-c2ccc(F)c(OC)c2F)c(=O)c(C(=O)O)c1-c1ccc(Cl)c(Cl)c1 [Compound 234, 2-(3,4-dichlorophenyl)-5-(2,4-difluoro-3-methoxy-phenyl)-1-ethyl-6-methyl-4-oxo-pyridine-3-carboxylic acid]	4 (4=61-80%)	5 (5=81-100%)	2 (2=21-40%)	3 (3=41-60%)	5 (5=81-100%)	4 (4=61-80%)	5 (5=81-100%)	4 (4=61-80%)	4 (4=61-80%)	3 (3=41-60%)	2 (2=21-40%)
CCn1c(C)c(-c2cc(F)ccc2OC)c(=O)c(C(=O)O)c1-c1ccc(Cl)c(Cl)c1 [Compound 235, 2-(3,4-dichlorophenyl)-1-ethyl-5-(5-fluoro-2-methoxy-phenyl)-6-methyl-4-oxo-pyridine-3-carboxylic acid]	0	0	0	3 (3=41-60%)	0	2 (2=21-40%)	4 (4=61-80%)	3 (3=41-60%)	3 (3=41-60%)	1 (1=0-20%)	0
CCn1c(C)c(-c2ccc(C)cc2F)c(=O)c(C(=O)O)c1-c1ccc(Cl)c(Cl)c1 [Compound 236, 2-(3,4-dichlorophenyl)-1-ethyl-5-(2-fluoro-4-methyl-phenyl)-6-methyl-4-oxo-pyridine-3-carboxylic acid]	4 (4=61-80%)	4 (4=61-80%)	1 (1=0-20%)	2 (2=21-40%)	3 (3=41-60%)	2 (2=21-40%)	5 (5=81-100%)	5 (5=81-100%)	5 (5=81-100%)	2 (2=21-40%)	1 (1=0-20%)
CCN(CC)S(=O)(=O)c1ccc(-c2c(C)n(CC)c(-c3ccc(Cl)c(Cl)c3)c(C(=O)O)c2=O)cc1 [Compound 237, 2-(3,4-dichlorophenyl)-5-[4-(diethylsulfamoyl)phenyl]-1-ethyl-6-methyl-4-oxo-pyridine-3-carboxylic acid]	0	1 (1=0-20%)	0	1 (1=0-20%)	2 (2=21-40%)	3 (3=41-60%)	4 (4=61-80%)	1 (1=0-20%)	2 (2=21-40%)	1 (1=0-20%)	0
CCn1c(C)c(-c2cccc(Oc3ccccc3)c2)c(=O)c(C(=O)O)c1-c1ccc(Cl)c(Cl)c1 [Compound 238, 2-(3,4-dichlorophenyl)-1-ethyl-6-methyl-4-oxo-5-(3-phenoxyphenyl) pyridine-3-carboxylic acid]	0	0	0	0	0	1 (1=0-20%)	4 (4=61-80%)	3 (3=41-60%)	1 (1=0-20%)	1 (1=0-20%)	0
CCn1c(C)c(-c2ccc(S(C)(=O)=O)cc2F)c(=O)c(C(=O)O)c1-c1ccc(Cl)c(Cl)c1 [Compound 239, 2-(3,4-dichlorophenyl)-1-ethyl-5-(2-fluoro-4-methylsulfonyl-phenyl)-6-methyl-4-oxo-pyridine-3-carboxylic acid]	1 (1=0-20%)	5 (5=81-100%)	1 (1=0-20%)	1 (1=0-20%)	5 (5=81-100%)	4 (4=61-80%)	3 (3=41-60%)	4 (4=61-80%)	2 (2=21-40%)	2 (2=21-40%)	0
